The target in one series is T1, PI3Kδ (Homo sapiens, UniProt O00329).
T1 construct: made in house
The series is described as follows: Enzymatic activity of PI3K isoforms, TR-FRET assay (PIP3 formation). In kind it is biochemical. The settings on record: PI3Kδ; TR-FRET, 2×Km ATP, 10 μM PIP2; read-out: IC50. The procedure, abridged: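 Recombinant heterodimeric class I PI3K; PIP3 product measured by TR-FRET competition with labelled PIP3 for Eu-GRP-1 PH domain. Reaction 30 min at 25 °C, stopped with 10 mM EDTA.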
(TR-FRET usually uses a lanthanide donor and a delayed reading to cut background.)

The subject of a further series is basophils. The series is described as follows: Basophil activation in human whole blood (Flow2 CAST kit, CD63 positive cells). The series is classed as cell-based. The settings on record: Homo sapiens, basophils activated with anti-FcεRI mAb or fMLP, geometric mean. The gist of the method:
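Human whole blood (K2-EDTA) preincubated 60 minutes at 37° C with compound serial dilutions or DMSO (0.3% final), then stimulated with anti-FcεRI mAb or fMLP and stained for CD63/CCR3. Percent CD63+ among ≥200 CCR3-high basophils by flow cytometry, normalized to stimulated vehicle as 100%. EC50 from four-parameter fits, geometric means in nM, concentrations corrected for reagent dilution.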

Series [1] in a line: Hepatocyte stability, 1% final DMSO, 2 μM substrate (t1/2^a). The series is classed as in vitro ADME. The settings on record: human, cryopreserved hepatocytes, TA with 1% final DMSO, 2 μM substrate, samples at 0, 1, 2, 4 hours; read-out: human hepatocyte t½^a. Here is the method:
This assay was used to evaluate the metabolic stability of test articles (TA) following incubation in cryopreserved hepatocytes by monitoring parent drug disappearance via […]. The TA with 1% final DMSO concentration was incubated with 1 million hepatocytes/ml at 2 μM substrate in duplicate. The incubation was carried out at 37° C. with 5% CO2 and saturating humidity.

Series [2] can be described thus: Hepatocyte stability, 0.01% final DMSO, 1 μM substrate (t1/2^b). The series is classed as in vitro ADME. The settings on record: human, hepatocytes, TA with 0.01% final DMSO, 1 μM substrate, samples at 0, 1, 3, 6 hours; read-out: human hepatocyte t½^b. On the procedure: Alternatively, assay reagents and/or conditions can be modified in determining the inhibitory activities to PI3K isomers. In additional studies, similar assay using TA and 0.01% final DMSO concentration were incubated with 1 million hepatocytes/mL at 1 μM substrate in duplicate. The incubation was carried out at 37° C. with 5% CO2 and saturating humidity.

Each structure is given as a SMILES string.

T1 sequence (O00329 whole entry): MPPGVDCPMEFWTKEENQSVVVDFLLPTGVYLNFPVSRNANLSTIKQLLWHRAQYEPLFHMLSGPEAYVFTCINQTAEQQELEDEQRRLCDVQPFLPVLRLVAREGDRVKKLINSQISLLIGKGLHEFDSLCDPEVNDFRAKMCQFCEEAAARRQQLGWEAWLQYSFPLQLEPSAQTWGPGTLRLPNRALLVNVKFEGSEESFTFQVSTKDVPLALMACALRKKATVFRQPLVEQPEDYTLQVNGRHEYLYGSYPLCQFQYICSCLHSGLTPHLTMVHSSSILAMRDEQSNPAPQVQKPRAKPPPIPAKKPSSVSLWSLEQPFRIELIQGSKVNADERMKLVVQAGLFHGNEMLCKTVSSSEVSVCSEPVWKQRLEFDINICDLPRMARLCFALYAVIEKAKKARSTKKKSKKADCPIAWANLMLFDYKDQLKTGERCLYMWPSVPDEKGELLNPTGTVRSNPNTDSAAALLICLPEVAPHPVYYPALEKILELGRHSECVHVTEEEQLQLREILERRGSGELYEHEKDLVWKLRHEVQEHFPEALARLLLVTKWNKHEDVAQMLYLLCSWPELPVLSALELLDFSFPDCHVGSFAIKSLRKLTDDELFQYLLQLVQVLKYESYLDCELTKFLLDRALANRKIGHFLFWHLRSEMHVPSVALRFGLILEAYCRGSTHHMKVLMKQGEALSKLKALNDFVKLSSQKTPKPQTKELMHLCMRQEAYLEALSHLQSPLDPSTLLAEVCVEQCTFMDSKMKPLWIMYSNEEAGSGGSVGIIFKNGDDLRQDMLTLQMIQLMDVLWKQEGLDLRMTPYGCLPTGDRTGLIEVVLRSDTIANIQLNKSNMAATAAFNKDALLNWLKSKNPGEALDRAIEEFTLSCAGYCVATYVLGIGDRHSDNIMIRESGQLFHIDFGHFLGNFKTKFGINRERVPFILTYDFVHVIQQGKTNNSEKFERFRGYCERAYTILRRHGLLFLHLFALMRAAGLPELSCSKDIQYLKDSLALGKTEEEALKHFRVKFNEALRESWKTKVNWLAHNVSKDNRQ
T1 sequence (P27986 whole entry partner): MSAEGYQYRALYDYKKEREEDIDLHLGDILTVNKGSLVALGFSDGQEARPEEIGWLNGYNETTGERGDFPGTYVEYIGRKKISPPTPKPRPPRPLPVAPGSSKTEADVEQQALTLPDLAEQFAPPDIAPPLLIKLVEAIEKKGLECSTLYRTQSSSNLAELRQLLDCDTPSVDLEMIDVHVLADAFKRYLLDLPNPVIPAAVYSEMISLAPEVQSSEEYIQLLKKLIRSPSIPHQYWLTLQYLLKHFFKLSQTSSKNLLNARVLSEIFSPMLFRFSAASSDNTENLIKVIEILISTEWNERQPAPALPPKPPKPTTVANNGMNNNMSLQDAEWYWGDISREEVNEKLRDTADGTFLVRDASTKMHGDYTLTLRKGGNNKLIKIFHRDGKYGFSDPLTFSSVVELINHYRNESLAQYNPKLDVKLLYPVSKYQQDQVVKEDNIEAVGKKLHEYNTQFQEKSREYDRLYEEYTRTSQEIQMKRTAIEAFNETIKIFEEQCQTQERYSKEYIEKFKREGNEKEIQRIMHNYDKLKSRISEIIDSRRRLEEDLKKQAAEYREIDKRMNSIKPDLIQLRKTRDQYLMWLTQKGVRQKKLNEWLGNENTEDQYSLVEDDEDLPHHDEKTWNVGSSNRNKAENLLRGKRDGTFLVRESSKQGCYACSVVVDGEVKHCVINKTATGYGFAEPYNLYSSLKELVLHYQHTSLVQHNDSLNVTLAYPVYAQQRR

The term IC50 denotes the concentration at which inhibition is half-maximal. For orientation: EC50 means the concentration that produces a half-maximal response. For the compound `CC(Nc1nc(N)nc(N)c1C#N)c1nc2c(F)ccc(F)c2c(=O)n1-c1cc(F)cc(F)c1` (single isomer, unassigned) [Compound 21a], at PI3Kδ, the half-inhibitory concentration (IC50) lay within 1 to 10 nM. Further, the EC50 with basophils fell in the range of 1 to 10 nM. Further, the half-life at 2 μM in series [1] is 6 to 10 h. Further, in series [2], the half-life at 1 μM lay in the range of 3 to 6 h.

For the compound `CC(Nc1nc(N)nc(N)c1C#N)c1nc2cccc(F)c2c(=O)n1-c1cc(F)cc(C(F)F)c1` (single isomer, unassigned) [Compound 54a], the IC50 at PI3Kδ lay within 10 to 50 nM. Also, the EC50 with basophils is 1 to 10 nM. For the same compound, the half-life at 2 μM in series [1] was > 10 h. Besides, the half-life at 1 μM in series [2] was 3 to 6 h.

Regarding `CC(Nc1nc(N)nc(N)c1C#N)c1nc2cccc(Cl)c2c(=O)n1-c1cccc(C(F)F)c1` (single isomer, unassigned) [Compound 106a], on PI3Kδ, the IC50 was < 1 nM. Also, the EC50 in the series with basophils is 1 to 10 nM. For the same compound, in series [1], the half-life at 2 μM was > 10 h. Moreover, the half-life at 1 μM in series [2] lay in the range of 1 to 3 h.

For the origin of these results see US9029384B2, “Phosphatidylinositol 3-kinase inhibitors” (Gilead Calistoga LLC, priority 2012, dated 2015).
